These results are taken from US20250304644A1, “PEPTIDES TRIPLE AGONISTS OF GIP, GLP-1 AND GLP-2” (BAINAN BIOTECH APS, priority 2021, published 2025).

A word on the Emax: it is the greatest response seen or fitted, relative to the assay's reference.

Where two headings read alike, the source gives them in different places. *1 amine or outer side, *2 acyl side, *3 side chain or, on linkers, in order; H or OH if unused. Where no end group is shown, it is not given here. Side-chain parts run from the residue outwards. [ ]: non-standard residue; d: D form. The star is where a group is joined. C18 diacid = O=C(O)CCCCCCCCCCCCCCCCC(=O)*; γGlu = O=C(O)[C@H](CCC(=O)[*:2])N[*:1]; AEEA = NCCOCCOCC(=O)O; Aib = CC(C)(N)C(=O)O

The target in one assay is T1, human GIPR (Homo sapiens, UniProt P48546).
T1 construct: host or cells: COS-7
T1 sequence (P48546 22-466): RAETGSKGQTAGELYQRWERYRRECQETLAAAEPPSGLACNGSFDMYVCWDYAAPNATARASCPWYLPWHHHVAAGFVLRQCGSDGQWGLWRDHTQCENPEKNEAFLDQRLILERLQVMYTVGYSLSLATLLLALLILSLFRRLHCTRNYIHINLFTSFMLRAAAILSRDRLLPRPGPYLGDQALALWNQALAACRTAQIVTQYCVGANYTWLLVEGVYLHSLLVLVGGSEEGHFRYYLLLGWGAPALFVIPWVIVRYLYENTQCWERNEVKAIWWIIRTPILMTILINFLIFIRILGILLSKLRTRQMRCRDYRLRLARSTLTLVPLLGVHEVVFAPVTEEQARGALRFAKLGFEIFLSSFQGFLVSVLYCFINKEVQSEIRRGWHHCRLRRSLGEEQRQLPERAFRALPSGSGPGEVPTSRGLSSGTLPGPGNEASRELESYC
The experiment in a line: cAMP assay (HitHunter) in transiently transfected COS-7 cells expressing human GIPR. It is filed as cell-based. As to conditions: for Emax: COS-7, normalized to highest concentration of the endogenous ligand, read-out: Efficacy GIPR (Emax). (cAMP levels reflect the balance of adenylyl cyclase and phosphodiesterase activity.)

The next assay has as its target T2, human GLP-2R (Homo sapiens, UniProt O95838).
T2 construct: host or cells: COS-7
T2 sequence (O95838 1-553): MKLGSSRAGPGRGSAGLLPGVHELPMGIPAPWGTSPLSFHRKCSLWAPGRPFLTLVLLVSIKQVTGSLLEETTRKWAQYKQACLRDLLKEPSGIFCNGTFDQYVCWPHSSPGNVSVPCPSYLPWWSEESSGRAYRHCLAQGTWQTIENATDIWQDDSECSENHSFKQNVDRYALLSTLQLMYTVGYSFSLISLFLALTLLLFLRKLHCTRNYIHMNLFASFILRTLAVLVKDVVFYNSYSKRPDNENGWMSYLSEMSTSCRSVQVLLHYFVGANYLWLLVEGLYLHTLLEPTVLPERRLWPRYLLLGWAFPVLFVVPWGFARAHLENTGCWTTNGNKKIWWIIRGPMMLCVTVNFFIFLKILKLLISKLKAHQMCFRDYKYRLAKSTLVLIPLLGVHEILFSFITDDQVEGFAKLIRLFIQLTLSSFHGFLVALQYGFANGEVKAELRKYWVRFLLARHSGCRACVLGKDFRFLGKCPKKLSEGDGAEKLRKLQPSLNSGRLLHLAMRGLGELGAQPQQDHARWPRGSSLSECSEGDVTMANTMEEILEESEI
The experiment in a line: cAMP assay (HitHunter) in transiently transfected COS-7 cells expressing human GLP-2R. It is filed as cell-based. The settings on record: for Emax: COS-7, normalized to highest concentration of the endogenous ligand, read-out: Efficacy GLP-2R (Emax).

In another assay the target is T3, human GLP-1R (Homo sapiens, UniProt P43220).
T3 construct: host or cells: COS-7
The experiment in a line: cAMP assay (HitHunter) in transiently transfected COS-7 cells expressing human GLP-1R. It is filed as cell-based. The settings on record: for Emax: COS-7, normalized to highest concentration of the endogenous ligand, read-out: Efficacy GLP-1R (Emax); for EC50: cAMP, COS-7 cells, human GLP-1R.

A further assay has as its target T4, human SNAP-tagged GIPR (Homo sapiens, UniProt P48546).
T4 construct: host or cells: HEK293A
T4 sequence (P48546 22-466): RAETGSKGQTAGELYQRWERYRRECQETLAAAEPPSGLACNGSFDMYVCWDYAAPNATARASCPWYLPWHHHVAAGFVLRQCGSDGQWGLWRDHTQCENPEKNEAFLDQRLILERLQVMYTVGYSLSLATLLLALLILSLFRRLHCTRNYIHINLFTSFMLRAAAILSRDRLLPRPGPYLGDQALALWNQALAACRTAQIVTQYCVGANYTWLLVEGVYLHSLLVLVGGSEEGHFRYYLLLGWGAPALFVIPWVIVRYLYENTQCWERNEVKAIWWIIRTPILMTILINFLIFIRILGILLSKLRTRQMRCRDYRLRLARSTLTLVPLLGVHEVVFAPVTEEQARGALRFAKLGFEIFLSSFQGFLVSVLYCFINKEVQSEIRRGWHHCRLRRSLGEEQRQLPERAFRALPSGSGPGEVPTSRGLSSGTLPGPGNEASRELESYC
In words: Receptor internalization assay, HEK293A cells expressing human SNAP-tagged GIPR. It is filed as cell-based. The settings on record: for Absolute hGIPR internalization (AUC): AUC of sigmoid curves up to 1 μM, 60 minutes at 37° C.; for GIPR internalization (in words): compared to native GIP; for Relative hGIPR internalization (%): relative to hGIP 1-42 = 100.

Another assay addresses T5, human SNP-tagged GLP-2R (Homo sapiens, UniProt O95838).
T5 construct: expressed in transfected cells; host or cells: HEK293A
T5 sequence (O95838 1-553): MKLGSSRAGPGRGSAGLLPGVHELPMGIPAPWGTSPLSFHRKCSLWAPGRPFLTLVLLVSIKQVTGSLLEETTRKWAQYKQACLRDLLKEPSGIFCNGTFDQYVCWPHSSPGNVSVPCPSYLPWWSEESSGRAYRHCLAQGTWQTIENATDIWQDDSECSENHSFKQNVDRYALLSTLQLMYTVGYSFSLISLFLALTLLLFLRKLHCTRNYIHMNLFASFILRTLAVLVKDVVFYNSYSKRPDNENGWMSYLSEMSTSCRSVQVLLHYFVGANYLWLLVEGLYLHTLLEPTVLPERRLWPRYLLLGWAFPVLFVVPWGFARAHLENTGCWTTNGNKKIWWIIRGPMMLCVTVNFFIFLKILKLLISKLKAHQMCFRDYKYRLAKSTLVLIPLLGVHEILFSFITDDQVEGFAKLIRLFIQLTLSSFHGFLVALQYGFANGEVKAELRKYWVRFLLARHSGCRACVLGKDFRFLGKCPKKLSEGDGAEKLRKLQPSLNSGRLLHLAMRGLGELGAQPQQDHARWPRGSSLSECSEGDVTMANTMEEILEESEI
In words: Receptor internalization assay, HEK293A cells expressing human SNAP-tagged GLP-2R. It is filed as cell-based. The settings on record: AUC of sigmoid curves up to 1 μM; 60 minutes at 37° C.

In assay [1] the target is T6, Human N-terminally SNAP-tagged GIPR (human, UniProt P48546 22-466, SNAP tag labeled with Tag-Lite SNAP-Lumi4-Tb).
T6 sequence (looked up): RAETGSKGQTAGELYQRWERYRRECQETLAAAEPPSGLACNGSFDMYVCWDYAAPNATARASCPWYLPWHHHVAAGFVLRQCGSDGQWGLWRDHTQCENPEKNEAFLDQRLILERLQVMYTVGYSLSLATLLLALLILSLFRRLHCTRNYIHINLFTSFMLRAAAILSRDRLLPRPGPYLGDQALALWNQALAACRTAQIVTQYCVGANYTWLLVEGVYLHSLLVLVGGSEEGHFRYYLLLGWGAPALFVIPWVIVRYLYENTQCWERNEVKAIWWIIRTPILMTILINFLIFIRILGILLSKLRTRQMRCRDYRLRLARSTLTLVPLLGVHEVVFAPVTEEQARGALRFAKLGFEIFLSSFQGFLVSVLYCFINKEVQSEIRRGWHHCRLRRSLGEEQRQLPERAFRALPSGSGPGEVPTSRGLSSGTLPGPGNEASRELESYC
The experiment in a line: cell-based or functional assay.

The target of assay [2] is T7, human GIPR (glucose-dependent insulinotropic polypeptide receptor) (human, UniProt P48546 22-466).
T7 sequence (looked up): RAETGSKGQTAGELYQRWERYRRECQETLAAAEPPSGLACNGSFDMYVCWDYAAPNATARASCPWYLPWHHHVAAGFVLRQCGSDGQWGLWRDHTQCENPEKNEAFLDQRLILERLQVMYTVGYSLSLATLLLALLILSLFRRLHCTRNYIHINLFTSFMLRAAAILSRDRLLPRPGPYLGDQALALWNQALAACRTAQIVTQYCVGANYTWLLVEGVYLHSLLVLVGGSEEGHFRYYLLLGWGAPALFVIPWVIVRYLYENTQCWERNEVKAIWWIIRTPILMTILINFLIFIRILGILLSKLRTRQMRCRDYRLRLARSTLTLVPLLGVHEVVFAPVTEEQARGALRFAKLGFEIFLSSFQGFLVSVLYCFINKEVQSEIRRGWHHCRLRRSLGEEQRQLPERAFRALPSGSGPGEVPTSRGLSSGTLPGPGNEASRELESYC
The experiment in a line: cell-based or functional assay.

Assay [3] addresses human GLP-1R (glucagon-like peptide-1 receptor) (human, UniProt P43220 24-463). In words: cell-based or functional assay.

T3 sequence (P43220 24-463): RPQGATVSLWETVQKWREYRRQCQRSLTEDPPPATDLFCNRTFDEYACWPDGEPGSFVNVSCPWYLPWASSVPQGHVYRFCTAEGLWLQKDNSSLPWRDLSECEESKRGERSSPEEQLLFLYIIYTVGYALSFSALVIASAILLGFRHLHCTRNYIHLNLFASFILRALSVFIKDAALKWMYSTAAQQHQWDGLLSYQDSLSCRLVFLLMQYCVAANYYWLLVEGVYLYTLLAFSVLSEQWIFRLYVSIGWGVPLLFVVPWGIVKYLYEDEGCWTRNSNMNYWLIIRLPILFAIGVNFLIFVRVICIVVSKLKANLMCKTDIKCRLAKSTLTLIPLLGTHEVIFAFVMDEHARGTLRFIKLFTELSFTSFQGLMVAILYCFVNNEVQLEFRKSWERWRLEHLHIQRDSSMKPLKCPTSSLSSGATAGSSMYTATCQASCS

On to “HADGTFTSDYSTILDKLAARDFINWLIQTKGKKNDWKHNITQK([AEEA-AEEA-γGlu-C18 diacid])-OH [Compound 26]”, for which the Emax at human GIPR came out at 106%; at human GLP-2R, 112%; on human GLP-1R, 103%. Further, the EC50 at human GIPR (cAMP, COS-7 cells, human GIPR) was 0.316 nM; at human GLP-1R (read-out: logEC50 GLP-1R (converted)), 0.0398 nM. In addition, the “Absolute hGIPR internalization (AUC)” value at human SNAP-tagged GIPR is reported as 16.4. In addition, the “GIPR internalization (in words)” value on human SNAP-tagged GIPR is on record as “internalization of the GIPR to a higher extent”. At human SNAP-tagged GIPR, the “Relative hGIPR internalization (%)” value was determined as 44%.

For the molecule “HADGTFTSDYST[Aib]LDKLAARDFINWLIQTKGKKNDWKHNITQK([AEEA-AEEA-γGlu-C18 diacid])-OH [Compound 27]”, the values for the maximum response (Emax) on human GIPR, at human GLP-2R and on human GLP-1R were 124%, 85% and 115%, respectively. Besides, the EC50 at human GLP-2R (cAMP, COS-7 cells, human GLP-2R, read-out: EC50 (nM) GLP-2R) worked out at 3.2 nM; at human GLP-1R (read-out: EC50 (nM) GLP-1R) it was 0.05 nM. The “Absolute hGIPR internalization (AUC)” value on human SNAP-tagged GIPR turned out to be 9.0. Further, the “GIPR internalization (in words)” value at human SNAP-tagged GIPR was “internalization of the GIPR to a higher extent”. Besides, the “Relative hGIPR internalization (%)” value at human SNAP-tagged GIPR is recorded as 24%.

Regarding “hGLP-1: native human glucagon-like peptide-1, endogenous GLP-1R ligand; which form (1-37, 7-36, 7-37) not stated [reference compound]”, the “Absolute hGLP-2R internalization (AUC)” value in the assay with human SNP-tagged GLP-2R amounted to 48.6.

B1: Compound 1 (peptide)
peptide: HXDGTFISDYSTILDNLAARDFINWLIQTKITK
modifications: Aib at position 2; K33 acylated with C10, K(C10); C-terminal amide (-NH2)
As for B1, the “Absolute hGIPR internalization (AUC)” value in assay [1] came out at 5.3 AUC.

B2: Compound 18 (peptide)
peptide: HADGTFTSDYSTILDNLAAK([AEEA-AEEA-γGlu-C18 diacid])DFINWLIQTKGKK-OH
modifications: N-terminus assumed
SMILES: CC[C@H](C)[C@H](NC(=O)[C@H](Cc1ccccc1)NC(=O)[C@H](CC(=O)O)NC(=O)[C@H](CCCCNC(=O)COCCOCCNC(=O)COCCOCCNC(=O)CC[C@H](NC(=O)CCCCCCCCCCCCCCCCC(=O)O)C(=O)O)NC(=O)[C@H](C)NC(=O)[C@H](C)NC(=O)[C@H](CC(C)C)NC(=O)[C@H](CC(N)=O)NC(=O)[C@H](CC(=O)O)NC(=O)[C@H](CC(C)C)NC(=O)[C@@H](NC(=O)[C@@H](NC(=O)[C@H](CO)NC(=O)[C@H](Cc1ccc(O)cc1)NC(=O)[C@H](CC(=O)O)NC(=O)[C@H](CO)NC(=O)[C@@H](NC(=O)[C@H](Cc1ccccc1)NC(=O)[C@@H](NC(=O)CNC(=O)[C@H](CC(=O)O)NC(=O)[C@H](C)NC(=O)[C@@H](N)Cc1c[nH]cn1)[C@@H](C)O)[C@@H](C)O)[C@@H](C)O)[C@@H](C)CC)C(=O)N[C@@H](CC(N)=O)C(=O)N[C@@H](Cc1c[nH]c2ccccc12)C(=O)N[C@@H](CC(C)C)C(=O)N[C@H](C(=O)N[C@@H](CCC(N)=O)C(=O)N[C@H](C(=O)N[C@@H](CCCCN)C(=O)NCC(=O)N[C@@H](CCCCN)C(=O)N[C@@H](CCCCN)C(=O)O)[C@@H](C)O)[C@@H](C)CC
Turning to B2, in assay [2], the “Efficacy GIPR” value is 82. Further, in assay [3], the “EC50 (nM) GLP-1R” value turned out to be 0.06 nM, the “Efficacy GLP-1R” value turned out to be 112 and the “logEC50 GLP-1R” value amounted to 10.2. Also, the “Absolute hGIPR internalization (AUC)” value in assay [1] worked out at 2.1 AUC.
